Experiments:
[1] = system: HepG2; assay: Inhibition of human recombinant BMP6-stimulated hepcidin mRNA expression in human HepG2 cells after 6 hrs by qRT-PCR analysis; assay type: functional, cell-based; settings: HepG2, 6 h
[2] = Metabolic stability in mouse liver microsomes assessed as […] by measuring parent compound remaining at 1 uM after 0.5 hrs by LC-MS/MS analysis; assay type: ADME; settings: read-out: Stability
[3] = Cmax in C57BL/6J mouse at 30 mg/kg, po by LC-MS/MS analysis; assay type: ADME, organism-based; parameters: dose 30 mg/kg, route oral; settings: in vivo
[4] = Tmax in C57BL/6J mouse at 30 mg/kg, po by LC-MS/MS analysis; assay type: ADME, organism-based; settings: in vivo
[5] = AUC in C57BL/6J mouse at 30 mg/kg, po by LC-MS/MS analysis; assay type: ADME, organism-based; settings: in vivo

SMILES | IC50 [1] | also measured
O=C(Nc1n[nH]c2cc(-c3ccc(O)cc3)ccc12)c1ccc(OCCN2CCOCC2)cc1 | 130 nM | remaining at 0.5 h, 1 µM [2]: 76%; Cmax [3]: 320 ng/mL; Tmax [4]: 1.5 h; AUC [5]: 890 ng·h/mL
Cc1[nH]nc(C2CC2)c1-c1ccc2c(NC(=O)C3CC3)n[nH]c2c1 | 82 nM | 
Cc1noc(C)c1-c1ccc2c(NC(=O)C3CC3)n[nH]c2c1 | 1000 nM | 
COC(=O)Nc1noc2cc(-c3c(-c4cccc(C(C)C)n4)n[nH]c3C)ccc12 | 2600 nM | 
O=C1Cc2cc(-c3ccc4c(NC(=O)C5CC5)n[nH]c4c3)ccc2N1 | > 30000 nM | 
COCCOC(=O)Nc1noc2cc(-c3c(-c4ccccn4)n[nH]c3C)ccc12 | 69 nM | 
Cc1n[nH]c(C)c1-c1ccc2c(NC(=O)c3ccc(OCCN4CCCCC4)cc3)n[nH]c2c1 | 260 nM | 
CCNC(=O)Nc1noc2cc(-c3c(C4CC4)n[nH]c3C)ccc12 | 720 nM | 
O=C(Nc1n[nH]c2cc(-c3cnc4[nH]ccc4c3)ccc12)C1CC1 | 11000 nM | 
CCOC(=O)Nc1noc2cc(-c3c(-c4ccccn4)n[nH]c3C)ccc12 | 40 nM | 
Cc1[nH]nc(-c2ccccn2)c1-c1ccc2c(NC(=O)OCCF)noc2c1 | 47 nM | 
O=C(Nc1n[nH]c2cc(-c3cc[nH]c3)ccc12)C1CC1 | > 30000 nM | 
O=C(Nc1n[nH]c2cc(-c3ccc(O)cc3)ccc12)C1CC1 | 400 nM | 
Cc1n[nH]c(C)c1-c1ccc2c(NC(=O)C3CC3)n[nH]c2c1 | 330 nM | 
COC(=O)Nc1noc2cc(-c3c(-c4cccc(OC)n4)n[nH]c3C)ccc12 | 400 nM | 
O=C(Nc1n[nH]c2cc(-c3ccncc3)ccc12)C1CC1 | 7200 nM | 
O=C(Nc1n[nH]c2cc(-c3ccc4[nH]cnc4c3)ccc12)C1CC1 | > 3000 nM | 
Cc1[nH]nc(C2CC2)c1-c1ccc2c(N)noc2c1 | 1400 nM | 
Cc1[nH]nc(-c2ccccn2)c1-c1ccc2c(NC(=O)OC(C)C)noc2c1 | 160 nM | 

Second part, led by results:

IC50 [1] | SMILES | also measured
540 nM | COC(=O)Nc1noc2cc(-c3c(-c4ccccc4)n[nH]c3C)ccc12 | 
460 nM | CCc1n[nH]c(C)c1-c1ccc2c(NC(=O)OC)noc2c1 | 
910 nM | COC(=O)Nc1noc2cc(-c3c(C(C)C)n[nH]c3C)ccc12 | 
4400 nM | CNC(=O)c1n[nH]c(C)c1-c1ccc2c(NC(=O)OC)noc2c1 | 
1100 nM | COCc1n[nH]c(C)c1-c1ccc2c(NC(=O)OC)noc2c1 | 
210 nM | COC(=O)Nc1noc2cc(-c3c(C4CC4)n[nH]c3C)ccc12 | 
1200 nM | COC(=O)Nc1noc2cc(-c3c(C(C)O)n[nH]c3C)ccc12 (centres undefined) | 
2900 nM | COC(=O)Nc1noc2cc(-c3c(C(=O)OC)n[nH]c3C)ccc12 | 
2600 nM | COC(=O)Nc1noc2cc(-c3c(-c4cc(C)ccn4)n[nH]c3C)ccc12 | 
350 nM | COC(=O)Nc1noc2cc(-c3c(-c4cccnn4)n[nH]c3C)ccc12 | 
4800 nM | COC(=O)Nc1noc2cc(-c3c(-c4ncccc4C)n[nH]c3C)ccc12 | 
580 nM | COC(=O)Nc1noc2cc(-c3c(C)n[nH]c3C)ccc12 | 
210 nM | COC(=O)Nc1noc2cc(-c3c(-c4cnccn4)n[nH]c3C)ccc12 | 
42 nM | COC(=O)Nc1noc2cc(-c3c(-c4cccc(C)n4)n[nH]c3C)ccc12 | 
2900 nM | COC(=O)Nc1noc2cc(-c3c(-c4ccncn4)n[nH]c3C)ccc12 | 
> 10000 nM | COC(=O)Nc1noc2cc(-c3c(C(C)(C)C)n[nH]c3C)ccc12 | 
